# Source: ChEMBL document CHEMBL3774317, “Design and synthesis of novel tamoxifen analogues that avoid CYP2D6 metabolism” (Eur J Med Chem, 2016)
# Experiments:
# [1] = Cytotoxicity against human SF295 cells assessed as growth inhibition after 48 hrs by SRB assay; type: functional; settings: SF-295, 48 h
# [2] = Cytotoxicity against human IGROV1 cells assessed as growth inhibition after 48 hrs by SRB assay; type: functional; settings: IGROV-1, 48 h
# [3] = tested on: SK-MEL-28; assay: Cytotoxicity against human SK-MEL-28 cells assessed as growth inhibition after 48 hrs by SRB assay; type: functional; settings: SK-MEL-28, 48 h
# [4] = Cytotoxicity against human LOXIMVI cells assessed as growth inhibition after 48 hrs by SRB assay; type: functional; settings: LOX IMVI
# [5] = Cytotoxicity against human SF539 cells assessed as growth inhibition after 48 hrs by SRB assay; type: functional; settings: SF-539, 48 h
# [6] = tested on: MCF7; assay: Antiproliferative activity against human MCF7 cells after 72 hrs by MTT assay; settings: mcf7
# [7] = tested on: NCI-H23; assay: Cytotoxicity against human NCI-H23 cells assessed as growth inhibition after 48 hrs by SRB assay; type: functional; settings: NCI-H23, 48 h
# [8] = Cytotoxicity against human SNB75 cells assessed as growth inhibition after 48 hrs by SRB assay; type: functional; settings: SNB-75, 48 h
# [9] = Cytotoxicity against human RXF393 cells assessed as growth inhibition after 48 hrs by SRB assay; type: functional; settings: RXF 393, 48 h
# [10] = tested on: U-251; assay: Cytotoxicity against human U251 cells assessed as growth inhibition after 48 hrs by SRB assay; type: functional; settings: U-251, 48 h
# [11] = Cytotoxicity against human TK10 cells assessed as growth inhibition after 48 hrs by SRB assay; type: functional; settings: TK-10, 48 h
# [12] = Cytotoxicity against human OVCAR4 cells assessed as growth inhibition after 48 hrs by SRB assay; type: functional; settings: OVCAR-4, 48 h
# [13] = tested on: NCI-H522; assay: Cytotoxicity against human NCI-H522 cells assessed as growth inhibition after 48 hrs by SRB assay; type: functional; settings: NCI-H522, 48 h
# [14] = tested on: K562; assay: Cytotoxicity against human K562 cells assessed as growth inhibition after 48 hrs by SRB assay; type: functional; settings: K562, 48 h
# [15] = Cytotoxicity against human SNB19 cells assessed as growth inhibition after 48 hrs by SRB assay; type: functional; settings: SNB-19, 48 h
# [16] = tested on: MDA-MB-435; assay: Cytotoxicity against human MDA-MB-435 cells assessed as growth inhibition after 48 hrs by SRB assay; type: functional; settings: MDA-MB-435, 48 h
# [17] = tested on: A498; assay: Cytotoxicity against human A498 cells assessed as growth inhibition after 48 hrs by SRB assay; type: functional; settings: A498, 48 h
# [18] = Cytotoxicity against human DU145 cells assessed as growth inhibition after 48 hrs by SRB assay; type: functional; settings: DU-145, 48 h
# [19] = tested on: HT-29; assay: Cytotoxicity against human HT-29 cells assessed as growth inhibition after 48 hrs by SRB assay; type: functional; settings: HT-29, 48 h
# [20] = Cytotoxicity against human SF268 cells assessed as growth inhibition after 48 hrs by SRB assay; type: functional; settings: SF-268, 48 h
# [21] = Cytotoxicity against human COLO205 cells assessed as growth inhibition after 48 hrs by SRB assay; type: functional; settings: COLO 205, 48 h
# [22] = tested on: CCRF-CEM; assay: Cytotoxicity against human CCRF-CEM cells assessed as growth inhibition after 48 hrs by SRB assay; type: functional
# [23] = Cytotoxicity against human Hs 578T cells assessed as growth inhibition after 48 hrs by SRB assay; type: functional
# [24] = tested on: MDA-MB-231; assay: Cytotoxicity against human MDA-MB-231 cells assessed as growth inhibition after 48 hrs by SRB assay; type: functional; settings: MDA-MB-231, 48 h
# [25] = Cytotoxicity against human SW620 cells assessed as growth inhibition after 48 hrs by SRB assay; type: functional; settings: SW-620, 48 h
# [26] = Cytotoxicity against human NCI-ADR-RES cells assessed as growth inhibition after 48 hrs by SRB assay; type: functional
# [27] = tested on: MCF7; assay: Cytotoxicity against human MCF7 cells assessed as growth inhibition after 48 hrs by SRB assay; type: functional; settings: MCF7, 48 h
# [28] = tested on: SR; assay: Cytotoxicity against human SR cells assessed as growth inhibition after 48 hrs by SRB assay; type: functional
# [29] = Cytotoxicity against human OVCAR8 cells assessed as growth inhibition after 48 hrs by SRB assay; type: functional; settings: OVCAR-8, 48 h
# [30] = Cytotoxicity against human HOP92 cells assessed as growth inhibition after 48 hrs by SRB assay; type: functional; settings: HOP-92, 48 h
# [31] = Cytotoxicity against human OVCAR3 cells assessed as growth inhibition after 48 hrs by SRB assay; type: functional; settings: OVCAR-3, 48 h
# [32] = tested on: MDA-MB-468; assay: Cytotoxicity against human MDA-MB-468 cells assessed as growth inhibition after 48 hrs by SRB assay; type: functional; settings: MDA-MB-468, 48 h
# [33] = tested on: NCI-H226; assay: Cytotoxicity against human NCI-H226 cells assessed as growth inhibition after 48 hrs by SRB assay; type: functional; settings: NCI-H226, 48 h
# [34] = read-out: LC50 (the source's name)
structure (smiles),measurement,setting,value
C/C(=C(/c1ccc(O)cc1)c1ccc(OCCN2CCCC2)cc1)c1ccccc1,GI50,[1],1.95 µM
same,LC50 (concentration killing 50% of cells),[1],8.99 µM
same,TGI,[1],4.19 µM
same,GI50,[2],6.8 µM
same,TGI,[2],27 µM
same,CC50,[2]; [34],90.7 µM
same,GI50,[3],1.65 µM
same,LC50 (concentration killing 50% of starting cells),[3],7.05 µM
same,TGI,[3],3.41 µM
same,GI50,[4],1.72 µM
same,LC50 (concentration killing 50% of cells),[4],6.29 µM
same,TGI,[4],3.29 µM
same,GI50,[5],1.81 µM
same,LC50,[5],7.79 µM
same,TGI,[5],3.76 µM
same,IC50,[6],< 1 µM
same,GI50,[7],4.31 µM
same,TGI,[7],18.2 µM
same,CC50,[7]; [34],50.8 µM
same,GI50,[8],3.07 µM
same,LC50,[8],42.2 µM
same,TGI,[8],15.7 µM
same,GI50,[9],2 µM
same,TGI,[9],5.05 µM
same,CC50,[9]; [34],19.8 µM
same,GI50,[10],2.24 µM
same,LC50 (50% lethal concentration),[10],18 µM
same,TGI,[10],5.49 µM
same,GI50,[11],4.61 µM
same,LC50,[11],40.7 µM
same,TGI,[11],16.4 µM
same,GI50,[12],4.7 µM
same,LC50,[12],43.3 µM
same,TGI,[12],17.5 µM
same,GI50,[13],2.1 µM
same,TGI,[13],5.09 µM
same,CC50,[13]; [34],18.6 µM
same,GI50,[14],1.81 µM
same,LC50,[14],23.6 µM
same,TGI,[14],4.77 µM
same,GI50,[15],2.95 µM
same,TGI,[15],8.1 µM
same,CC50,[15]; [34],42.2 µM
same,GI50,[16],1.88 µM
same,TGI,[16],4.4 µM
same,CC50,[16]; [34],10.8 µM
same,GI50,[17],1.67 µM
same,LC50,[17],38.5 µM
same,TGI,[17],8.49 µM
same,GI50,[18],9.72 µM
same,LC50,[18],46.3 µM
same,TGI,[18],21.4 µM
same,GI50,[19],1.35 µM
same,TGI,[19],3.2 µM
same,CC50,[19]; [34],7.58 µM
same,GI50,[20],5.58 µM
same,LC50,[20],55.2 µM
same,TGI,[20],20.7 µM
same,GI50,[21],1.7 µM
same,TGI,[21],3.38 µM
same,CC50,[21]; [34],6.73 µM
same,GI50,[22],3.2 µM
same,TGI,[22],9.85 µM
same,CC50,[22]; [34],50 µM
same,GI50,[23],2.96 µM
same,TGI,[23],9.9 µM
same,CC50,[23]; [34],> 100 µM
same,GI50,[24],3.51 µM
same,LC50,[24],45.7 µM
same,TGI,[24],8.4 µM
same,GI50,[25],2.28 µM
same,LC50,[25],15.3 µM
same,TGI,[25],5.16 µM
same,GI50,[26],4.17 µM
same,TGI,[26],18.3 µM
same,CC50,[26]; [34],61.5 µM
same,GI50,[27],< 0.01 µM
same,TGI,[27],2.72 µM
same,CC50,[27]; [34],14 µM
same,GI50,[28],1.93 µM
same,TGI,[28],5.75 µM
same,CC50,[28]; [34],40.6 µM
same,GI50,[29],5.73 µM
same,TGI,[29],23.1 µM
same,CC50,[29]; [34],77.2 µM
same,GI50,[30],2.24 µM
same,TGI,[30],7.34 µM
same,CC50,[30]; [34],31.2 µM
same,GI50,[31],5.66 µM
same,LC50,[31],42.5 µM
same,TGI,[31],18.1 µM
same,GI50,[32],1.84 µM
same,TGI,[32],4.47 µM
same,CC50,[32]; [34],13 µM
same,GI50,[33],11.3 µM
same,LC50 (50% lethal concentration),[33],79 µM
same,TGI,[33],29.8 µM
